Measured values as given in ChEMBL document CHEMBL1944561, “Discovery and SAR exploration of a novel series of imidazo[4,5-b]pyrazin-2-ones as potent and selective mTOR kinase inhibitors” (Bioorg Med Chem Lett, 2011).
pIC50: −log10 of the molar value.

What was measured:
[1] = target: T1, Serine/threonine-protein kinase mTOR (Homo sapiens, UniProt P42345); test: Inhibition of mTOR
[2] = target: T1, Serine/threonine-protein kinase mTOR; test: Inhibition of mTOR-mediated S6 phosphorylation in human PC3 cells; assay type: cell-based, PC-3
[3] = target: T1, Serine/threonine-protein kinase mTOR; test: Inhibition of mTOR-mediated Akt phosphorylation in human PC3 cells; assay type: cell-based, PC-3
PC-3 = test: Antiproliferative activity against human PC3 cells
[4] = target: Phosphatidylinositol 4,5-bisphosphate 3-kinase catalytic subunit alpha isoform (Homo sapiens, UniProt P42336); test: Inhibition of PI3Kalpha
[5] = Metabolic stability in rat hepatocytes assessed as compound remaining after 60 mins; assay type: ADME, cell-based, Hepatocyte; conditions: read-out: Stability

Chain of Phosphatidylinositol 4,5-bisphosphate 3-kinase catalytic subunit alpha isoform (P42336 whole entry, canonical isoform): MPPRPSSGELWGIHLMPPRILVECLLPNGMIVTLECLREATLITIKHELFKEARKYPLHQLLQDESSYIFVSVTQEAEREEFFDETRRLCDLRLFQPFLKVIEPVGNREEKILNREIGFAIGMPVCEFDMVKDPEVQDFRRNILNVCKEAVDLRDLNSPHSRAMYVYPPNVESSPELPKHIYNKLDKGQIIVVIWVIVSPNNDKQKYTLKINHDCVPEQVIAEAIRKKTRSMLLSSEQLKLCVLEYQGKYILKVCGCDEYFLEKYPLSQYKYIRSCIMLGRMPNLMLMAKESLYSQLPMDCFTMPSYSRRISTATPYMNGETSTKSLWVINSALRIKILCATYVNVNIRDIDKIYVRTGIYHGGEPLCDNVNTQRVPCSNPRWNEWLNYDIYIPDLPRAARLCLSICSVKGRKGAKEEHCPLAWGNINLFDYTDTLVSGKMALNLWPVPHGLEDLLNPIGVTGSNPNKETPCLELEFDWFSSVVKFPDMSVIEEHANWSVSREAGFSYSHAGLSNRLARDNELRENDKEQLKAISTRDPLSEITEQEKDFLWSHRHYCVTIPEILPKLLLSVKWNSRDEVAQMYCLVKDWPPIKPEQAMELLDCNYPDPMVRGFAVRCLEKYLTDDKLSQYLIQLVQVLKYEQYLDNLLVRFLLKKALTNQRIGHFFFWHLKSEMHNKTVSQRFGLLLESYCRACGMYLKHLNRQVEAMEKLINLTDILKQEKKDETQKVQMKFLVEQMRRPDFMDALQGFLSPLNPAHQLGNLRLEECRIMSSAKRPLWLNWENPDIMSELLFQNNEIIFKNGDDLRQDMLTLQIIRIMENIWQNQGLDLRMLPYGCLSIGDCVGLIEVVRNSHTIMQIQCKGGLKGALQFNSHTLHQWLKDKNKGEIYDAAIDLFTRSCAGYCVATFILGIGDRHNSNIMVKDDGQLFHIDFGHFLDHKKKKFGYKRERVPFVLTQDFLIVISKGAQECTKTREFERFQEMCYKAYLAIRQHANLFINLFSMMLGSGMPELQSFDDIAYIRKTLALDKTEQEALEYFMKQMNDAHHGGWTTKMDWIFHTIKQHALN

`O=c1[nH]c2ncc(-c3ccc4cc[nH]c4c3)nc2n1CC1CCCCC1` gave a pIC50 [1] of 5.46.
With `O=c1[nH]c2ncc(-c3ccc(-c4nc[nH]n4)cc3)nc2n1CC1CCCCC1` the pIC50 [1] was 8.05.
Molecule `NC(=O)[C@H]1CC[C@H](n2c(=O)[nH]c3ncc(-c4ccc(O)cc4)nc32)CC1` has a pIC50 [1] of 6.75, a pIC50 [2] of under 5.30 and a pIC50 [3] of under 5.30. For the same molecule, the pIC50 (PC-3) was under 5.30.
`CC(C)NC(=O)c1ccc(-c2cnc3[nH]c(=O)n(CC4CCCCC4)c3n2)cc1` showed a pIC50 [1] of 5.05.
`CNc1nc2cc(-c3cnc4[nH]c(=O)n(CC5CCOCC5)c4n3)ccc2[nH]1` showed a pIC50 [1] of 8.22, a pIC50 [4] of under 4.52 and a pIC50 [2] of under 5.30. It also gave a pIC50 (PC-3) of under 5.30.
With `O=c1[nH]c2ncc(-c3ccccc3)nc2n1CC1CCCCC1` the pIC50 [1] was under 5.00.
For `O=c1[nH]c2ncc(-c3ccc4[nH]ccc4c3)nc2n1CC1CCCCC1`, the pIC50 [1] was 7.20 and the pIC50 [4] was under 4.52.
Molecule `O=c1[nH]c2ncc(-c3ccc(O)cc3)nc2n1C1CCCCC1` has a pIC50 [1] of 5.54.
In the case of `Nc1nc2ccc(-c3cnc4[nH]c(=O)n(CC5CCCCC5)c4n3)cc2[nH]1`, the pIC50 [1] was 8.70, the pIC50 [2] was 6.70 and the pIC50 [3] was 7.04. The pIC50 (PC-3) was 6.25.
For `CC(C)Cn1c(=O)[nH]c2ncc(-c3ccc(O)cc3)nc21`, the pIC50 [1] was 5.99.
`O=c1[nH]c2ncc(-c3ccc(-c4cnco4)cc3)nc2n1CC1CCCCC1` gave a pIC50 [1] of 5.87.
In the case of `O=c1[nH]c2ncc(-c3ccc(-c4cn[nH]c4)cc3)nc2n1CC1CCCCC1`, the pIC50 [1] was 6.92 and the pIC50 [4] was under 4.52.
In the case of `CN1CCC(Cn2c(=O)[nH]c3ncc(-c4ccc(O)cc4)nc32)CC1`, the pIC50 [1] was 4.85.
With `O=c1[nH]c2ncc(-c3ccc(O)cc3)nc2n1CC1CCOCC1` the pIC50 [1] was 6.47.
Molecule `NCc1ccc(-c2cnc3[nH]c(=O)n(CC4CCCCC4)c3n2)cc1` has a pIC50 [1] of 5.08.
For `O=c1[nH]c2ncc(-c3cnc4[nH]cnc4c3)nc2n1CC1CCOCC1`, the pIC50 [1] was 6.41.
With `O=c1[nH]c2ncc(-c3ccc(O)cc3)nc2n1Cc1cccc(O)c1` the pIC50 [1] was 5.98.
`COCCn1c(=O)[nH]c2ncc(-c3ccc(O)cc3)nc21` showed a pIC50 [1] of 5.62.
Work on `COC(=O)c1ccc(-c2cnc3[nH]c(=O)n(CC4CCCCC4)c3n2)cc1` yielded a pIC50 [1] of under 5.00.
`NC(=O)c1ccc(-c2cnc3[nH]c(=O)n(CC4CCCCC4)c3n2)cc1` showed a pIC50 [1] of 7.15 and a pIC50 [4] of under 4.52.
`CO[C@H]1C[C@@H]2CC[C@@H](C)[C@@](O)(O2)C(=O)C(=O)N2CCCC[C@H]2C(=O)O[C@H]([C@H](C)C[C@@H]2CC[C@@H](O)[C@H](OC)C2)CC(=O)[C@H](C)/C=C(\C)[C@@H](O)[C@@H](OC)C(=O)[C@H](C)C[C@H](C)/C=C/C=C/C=C/1C` [SIROLIMUS] showed a pIC50 (PC-3) of over 8.00.
With `O=c1[nH]c2ncc(-c3ccc(-c4ncc[nH]4)cc3)nc2n1CC1CCOCC1` the pIC50 (PC-3) was 6.04.
`O=c1[nH]c2ncc(-c3ccc(-c4nn[nH]n4)cc3)nc2n1CC1CCCCC1` gave a pIC50 [1] of 5.80.
`NC(=O)[C@H]1CC[C@@H](n2c(=O)[nH]c3ncc(-c4ccc(O)cc4)nc32)CC1` gave a pIC50 [1] of 6.75, a pIC50 [2] of under 5.30 and a pIC50 [3] of under 5.30. For the same molecule, the pIC50 (PC-3) was under 5.30.
With `O=c1[nH]c2ncc(-c3ccc(CO)cc3)nc2n1CC1CCCCC1` the pIC50 [1] was 7.22, the pIC50 [4] was under 4.52 and the remaining at 1 h [5] was 8%.
In the case of `CNC(=O)c1ccc(-c2cnc3[nH]c(=O)n(CC4CCCCC4)c3n2)cc1`, the pIC50 [1] was 6.92.
Work on `Nc1nc2cc(-c3cnc4[nH]c(=O)n(CC5CCOCC5)c4n3)ccc2[nH]1` yielded a pIC50 [1] of 8.00.
With `O=c1[nH]c2ncc(-c3ccc4[nH]ccc4c3)nc2n1CC1CCOCC1` the pIC50 [1] was 7.68, the pIC50 [4] was under 4.52 and the pIC50 [2] was 6.64. The pIC50 [3] was 7.30 and the pIC50 (PC-3) was 6.22.
Work on `O=c1[nH]c2ncc(-c3ccc(-n4ccnn4)cc3)nc2n1CC1CCCCC1` yielded a pIC50 [1] of under 5.00.
`O=C(O)c1ccc(-c2cnc3[nH]c(=O)n(CC4CCCCC4)c3n2)cc1` gave a pIC50 [1] of 6.89 and a pIC50 [4] of 4.63.
`O=c1[nH]c2ncc(-c3ccc4[nH]ncc4c3)nc2n1CC1CCCCC1` gave a pIC50 [1] of 6.72, a pIC50 [4] of 4.90 and a pIC50 [2] of 6.20. The pIC50 (PC-3) was 5.67.
`O=c1[nH]c2ncc(-c3ccc(O)cc3)nc2n1CC1CCCCC1` gave a pIC50 [1] of 6.11.
For `CC(C)n1c(=O)[nH]c2ncc(-c3ccc(O)cc3)nc21`, the pIC50 [1] was 5.98.
Work on `O=c1[nH]c2ncc(-c3ccc(O)cc3)nc2n1C1CCOCC1` yielded a pIC50 [1] of 5.78.
`O=c1[nH]c2ncc(-c3ccc4[nH]cnc4c3)nc2n1CC1CCOCC1` showed a pIC50 [1] of 7.52.
